Results on one compound are retold here after patent publication US11524003B2, “Alpha-amino esters of hydroxypropylthiazolidine carboxamide derivative and salt form, crystal polymorph thereof” (ObsEva S.A., priority 2016, dated 2022).

The target in one data set is human FP (Homo sapiens, UniProt P43088). In words: IP3 synthesis in FP-transfected HEK293-EBNA cells. Conditions: tested up to 10 μM.
The nature of data set [1]: Solubility in water, FaSSIF and FeSSIF. It counts as physicochemical.
Data set [2] has as its system proinflammatory proteins (COX-2, p-cPLA2, p-p65, p-p38, p-ERK). As to the kind of experiment: Western blot of proinflammatory proteins in human myometrial and amnion biopsies. The protocol:
FIG. 79a is a Western blot showing the effects of oxytocin, nolasiban, and a combination thereof on the expression of phosphorylated p65 (p-p65), phosphorylated p38 (p-p38), and phosphorylated extracellular signal-regulated kinase (p-ERK) in N=6 term, pre-laboring myometrial biopsies collected from human female subjects undergoing caesarean section delivery. Samples were either unstimulated (“NS”), stimulated with oxytocin (“OT”), treated with nolasiban at a concentration of 1 μM, or treated with both oxytocin and nolasiban at a concentration of 1 μM for the indicated periods of time. A blot against β-actin was performed as a control. FIG. 79b is a Western blot showing the effects of oxytocin and/or varying concentration of compound II, optionally in combination with nolasiban, on the expression of p-p65, p-p38, and p-ERK in N=6 term, pre-laboring myometrial biopsies collected from human female subjects undergoing caesarean section delivery. Samples were either unstimulated (“NS”), stimulated with oxytocin (“OT”), treated with compound II at a concentration of 3 μM, or treated with both oxytocin and compound II at varying concentrations of compound II, both in the presence and absence of nolasiban at a concentration of 1 μM for the indicated periods of time. A blot against β-actin was performed as a control. […]

SMILES strings stand for the structures. Converted amounts (≈) assume the structure as drawn. Where two headings read alike, the source gives them in different places.

human FP, sequence (P43088 whole entry): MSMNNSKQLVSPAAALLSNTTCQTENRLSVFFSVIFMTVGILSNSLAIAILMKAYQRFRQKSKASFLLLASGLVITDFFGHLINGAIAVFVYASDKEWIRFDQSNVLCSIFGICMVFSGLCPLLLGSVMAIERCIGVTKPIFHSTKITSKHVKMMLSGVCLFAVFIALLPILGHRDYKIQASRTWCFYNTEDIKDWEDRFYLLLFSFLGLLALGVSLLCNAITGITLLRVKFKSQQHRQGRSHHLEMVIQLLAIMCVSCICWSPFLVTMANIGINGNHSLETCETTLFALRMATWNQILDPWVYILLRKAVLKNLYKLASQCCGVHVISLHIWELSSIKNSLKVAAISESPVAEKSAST

`O=C(N[C@@H](CCO)c1ccc(F)cc1)[C@@H]1SCCN1S(=O)(=O)c1ccc(-c2ccccc2)cc1` [Compound II, 3-([1,1′-biphenyl]-4-ylsulfonyl)-N-[1-(4-fluorophenyl)-3-hydroxypropyl]-1,3-thiazolidine-2-carboxamide]: at human FP, the “Agonist activity (IP3 synthesis when added alone)” value was “did not induce any synthesis of IP3”. Moreover, the solubility in data set [1] (FaSSIF, pH 6.5 (fasted state), read-out: Solubility in FaSSIF pH 6.5) worked out at 0.4 µg/mL (≈ 0.799 µM); in data set [1] (FeSSIF, pH 5.0 (fed state), read-out: Solubility in FeSSIF pH 5.0) it was 10 µg/mL (≈ 20 µM). For the same compound, the “Expression of proinflammatory proteins” value in data set [2] is recorded as “capable of reducing the expression of various proinflammatory proteins”.

By solubility is commonly meant how much of the substance goes into solution per volume.
